Measurements taken from PMC3502260, “Plasmodium serine hydroxymethyltransferase as a potential anti-malarial target: inhibition studies using improved methods for enzyme production and assay” (Malaria Journal, 2012).

Legend:
PfSHMT [1] = target: T1, PfSHMT (Plasmodium falciparum, UniProt Q8I566); assay: SHMT-MTHFD coupled assay, initial rates; assay type: biochemical; details: read-out: % inhibition at 0.1 mM
T1 construct: gene SHMT; recombinant, expressed in E. coli BL21(DE3) as in an earlier report, purified on Ni-Sepharose; dimer
T1 sequence (Q8I566 1-442): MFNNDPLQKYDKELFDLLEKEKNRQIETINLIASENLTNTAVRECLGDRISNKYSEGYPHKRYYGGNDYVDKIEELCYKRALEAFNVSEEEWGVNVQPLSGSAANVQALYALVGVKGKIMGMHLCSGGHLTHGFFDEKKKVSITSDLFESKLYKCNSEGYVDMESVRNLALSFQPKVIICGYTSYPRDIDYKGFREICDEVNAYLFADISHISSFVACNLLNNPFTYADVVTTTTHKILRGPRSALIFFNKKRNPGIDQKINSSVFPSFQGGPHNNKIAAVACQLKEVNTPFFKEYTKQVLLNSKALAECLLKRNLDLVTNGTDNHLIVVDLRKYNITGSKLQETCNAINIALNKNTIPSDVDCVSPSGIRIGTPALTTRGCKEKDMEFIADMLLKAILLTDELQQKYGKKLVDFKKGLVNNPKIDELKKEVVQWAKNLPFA

PfSHMT [2] = target: T1, PfSHMT; assay: PLP fluorescence quenching; assay type: binding; details: 10 mM ligand, ~23 μM enzyme, 25 °C, 50 mM HEPES pH 7
PvSHMT [3] = target: T2, PvSHMT (Plasmodium vivax, UniProt A5K8L9); assay: PLP fluorescence quenching; assay type: binding; details: 10 mM ligand, ~23 μM enzyme, 25 °C, 50 mM HEPES pH 7
T2 construct: gene PVX_100730; recombinant, expressed in E. coli BL21(DE3) as in an earlier report; dimer
T2 sequence (A5K8L9 1-442): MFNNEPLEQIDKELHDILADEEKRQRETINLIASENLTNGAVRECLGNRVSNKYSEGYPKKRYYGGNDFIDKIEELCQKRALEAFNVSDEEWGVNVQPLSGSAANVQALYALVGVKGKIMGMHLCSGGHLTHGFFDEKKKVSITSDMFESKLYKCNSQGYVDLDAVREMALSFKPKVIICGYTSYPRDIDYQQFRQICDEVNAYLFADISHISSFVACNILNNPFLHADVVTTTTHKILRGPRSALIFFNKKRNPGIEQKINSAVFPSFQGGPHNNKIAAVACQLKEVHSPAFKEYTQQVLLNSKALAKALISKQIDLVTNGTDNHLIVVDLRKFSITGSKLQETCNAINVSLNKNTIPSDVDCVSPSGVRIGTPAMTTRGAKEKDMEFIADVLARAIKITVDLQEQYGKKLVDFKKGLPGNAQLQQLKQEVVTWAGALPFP

PvSHMT [4] = target: T2, PvSHMT; assay: SHMT-MTHFD coupled assay, initial rates; assay type: biochemical; details: read-out: % inhibition at 0.25 mM
PvSHMT [5] = target: T2, PvSHMT; assay: time-dependent inactivation, SHMT-MTHFD coupled assay; assay type: biochemical; details: covalent; time-dependent inactivation by reaction with PLP; preincubation 5-30 min; 25 °C, 50 mM HEPES pH 7
PfSHMT [6] = target: T1, PfSHMT; assay: as above; assay type: biochemical; details: covalent; time-dependent inactivation by reaction with PLP; preincubation 5-30 min; 25 °C, 50 mM HEPES pH 7

Row | SMILES | PLP fluorescence quenching (PfSHMT [2]) | PLP fluorescence quenching (PvSHMT [3]) | other results
1 | CCOc1cc(Cc2cnc(N)nc2N)ccc1OCCCc1ccccc1 [CT-55-59-42] | – | – | inhibition at 100 µM (PfSHMT [1]): 40%
2 | CCCCOc1cc(Cc2cnc(N)nc2N)ccc1OCc1cc(OC)c(OC)c(OC)c1 [CT-57-59-38] | – | – | inhibition at 100 µM (PfSHMT [1]): 40%
3 | N[C@H](CO)C(=O)O [D-serine] | Upon addition of amino acids (L-, D-serine, L-alanine, and glycine), the fluorescence signal of Pf- | the fluorescence signal of Pf- and PvSHMT was quenched | –
4 | C[C@H](N)C(=O)O [L-alanine] | Upon addition of amino acids (L-, D-serine, L-alanine, and glycine), the fluorescence signal of Pf- | the fluorescence signal of Pf- and PvSHMT was quenched | –
5 | N[C@@H](CO)C(=O)O [L-serine] | Upon addition of amino acids (L-, D-serine, L-alanine, and glycine), the fluorescence signal of Pf- | – | –
6 | CCc1nc(N)nc(N)c1OCCCOc1ccnc2ccccc12 [TV-P-0-113] | – | – | inhibition at 250 µM (PvSHMT [4]): 40%
7 | NCC(=O)O [glycine] | for PfSHMT the binding of glycine caused the largest decrease in fluorescence intensity | the fluorescence signal of Pf- and PvSHMT was quenched | –
8 | NNC(N)=S [thiosemicarbazide] | – | – | KI (inactivation) (PvSHMT [5]): 210 ± 80 µM; KI (inactivation) (PfSHMT [6]): 360 ± 70 µM
